Experimental data taken from patent publication US20070077642A1, “Steroid receptor modulation of gene expression” (priority 2002, published 2007).
Read-outs that look alike come from different tables or passages of the source.

Legend:
[1] = test system: A. nidulans; test: Growth test on plates at different ligand concentrations; type: cell-based, Aspergillus nidulans
Protocol: Induction of estrogen receptor expression via the addition of […], 100 nM, and 1 μM of DES inducer to media plates harboring the Xgal substrate for LacZ in the transformed strain: A. nidulans argB2, riboA1, pyrG 89, pyroA4. FIG. 6. […] Activation of the reporter construct at 1 nM DES was shown in the transformed fungi.

[2] = test system: alcA promoter of A. nidulans; settings: pRM alcA, induction with ethanol
Protocol: To test the different inducer concentrations the strains were harvested by filtration and aliquots were transferred to fresh media containing the different inducer concentrations and additionally grown for 8 hours. At the end mycelium was harvested by filtration and frozen in liquid nitrogen. For time curve experiments the strains were harvested and additionally grown for 24 hours and after 2, 4, 6, 8 and 24 hours samples were taken and frozen in liquid nitrogen. […] An equal amount of fungal cell mass has been transferred to fresh medium and aliquots have been subjected to induction by the agonists. After sampling at desired time points the wet cell pellet has been processed as described.
NaPO4 buffer and glasbeads (0.75-1.0 mm) were added to the frozen mycelia and cells were destroyed by the use of the Hybaid RiboLyser. Cell debris was separated by centrifugation and the supernatant was used for enzyme assays Protein concentration was determined using the BCA assay of Pierce and the specific β-galactosidase activity was determined by the use of the protocol of Invitrogen.
β-gal activity in each pERE constructs were assayed after induction with 1 nM DES. The alcA expression was also assayed for comparison.

Compound | growth of strains transformed with reporter constructs ([1]; strains transformed with reporter constructs, 100 nM DES) | growth of strains transformed with the hER ([1]; strains transformed with the hER, 1 nM DES) | effect on growth of a wild type strain ([1]; wild type strain, DES concentrations up to 20 μM) | Inducibility ([2]; 24 h level over time 0 level) | β-gal activity ([2]; time 2 hours) | β-gal activity ([2]; time 4 hours) | β-gal activity ([2]; time 6 hours) | β-gal activity ([2]; time 8 hours) | β-gal activity ([2]; time 24 hours)
CC/C(=C(/CC)c1ccc(O)cc1)c1ccc(O)cc1 [DES, diethylstilbestrol] | strong growth inhibition | Growth inhibition | do not affect the growth | – | – | – | – | – | –
CCO [ethanol] | – | – | – | 16.23 | 506.66 units per mg protein | 714.43 units per mg protein | 1327.44 units per mg protein | 1431.02 units per mg protein | 6082.59 units per mg protein
